These are literature values, as cited in patent US20200246411A1, “ANTI-DIARRHOEAL HERBAL COMPOSITIONS” (SRH NUTRITION LLP, priority 2017, published 2020).

Structures are written as SMILES.

For this data set the following is noted: conventional drug use.
On to `CCOC(=O)C1(c2ccccc2)CCN(CCC(C#N)(c2ccccc2)c2ccccc2)CC1` [Diphenoxylate], for which the “disadvantages / adverse reactions” value is recorded as “Therapeutic doses induce adverse reactions in the CNS (confusion,”.

On to `CN(C)C(=O)C(CCN1CCC(O)(c2ccc(Cl)cc2)CC1)(c1ccccc1)c1ccccc1` [Loperamide], for which the “disadvantages / adverse reactions” value is recorded as “Frequent adverse reactions induced are hypersensibility reactions”.

Regarding `COc1ccc2c3c1O[C@H]1[C@@H](O)C=C[C@H]4[C@@H](C2)N(C)CC[C@@]341` [Codeine], the “disadvantages / adverse reactions” value was “Produces secondary effects such as nausea, dizziness and acts against”.

As for `[Bi]` [Bismuth], the “disadvantages / adverse reactions” value is “Causes adverse reactions (dizziness, cephalea, constipation, dark stools,”.

On to `CC(=O)SCC(Cc1ccccc1)C(=O)NCC(=O)OCc1ccccc1` (centres unmarked) [Racecadotril], for which the “disadvantages / adverse reactions” value is on record as “Cause some adverse reactions such as hypokalemia, bronchospasm,”.
